Conditions: 101 kPa, Liquid mixture 1, Pendant Drop method

CCCC[N+]1(C)CCCC1.O=S(=O)([N-]S(=O)(=O)C(F)(F)F)C(F)(F)F + CCCCO
Conditions | interfacial tension [mN/m]
293.15 K | 0.666
295.65 K | 0.576
298.15 K | 0.443
300.65 K | 0.368
303.15 K | 0.276
305.65 K | 0.163

— the NIST ThermoML archive (doi:10.1021/je201391j)
